Inconclusive results and toxic doses are left out.

In this assay the test system is L1210 leukemia ip in BDF1 mice, survival T/C. The assay can be described thus: NCI In Vivo Anticancer Drug Screen. Data for tumor model L1210 Leukemia (intraperitoneal) in B6D2F1 (BDF1) mice. The following applies: endpoint: mean survival time, higher = longer survival. An outline of the steps: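 Each compound was tested against a transplantable tumor grown in mice. The endpoint was survival, with treated animals benchmarked against vehicle controls as a simple ratio.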

Where [1] appears, read: dose: 200.0 mg/kg/injection, schedule: Q04DX002 (ip), vehicle: Klucel (hydroxypropylcellulose) (HPC).
[2] abbreviates: dose: 400.0 mg/kg/injection, schedule: Q04DX002 (ip), vehicle: Klucel (hydroxypropylcellulose) (HPC).
The mark [3] stands for this setting: dose: 100.0 mg/kg/injection, schedule: Q04DX002 (ip), vehicle: Klucel (hydroxypropylcellulose) (HPC).
The mark [4] stands for this setting: dose: 100.0 mg/kg/injection, schedule: Q01DX009 (ip), vehicle: Klucel (hydroxypropylcellulose) (HPC).
Where [5] appears, read: dose: 200.0 mg/kg/injection, schedule: Q04DX003 (ip), vehicle: Klucel (hydroxypropylcellulose) (HPC).
The mark [6] stands for this setting: dose: 400.0 mg/kg/injection, schedule: Q04DX003 (ip), vehicle: Klucel (hydroxypropylcellulose) (HPC).
Setting [7] is: dose: 25.0 mg/kg/injection, schedule: Q01DX009 (ip), vehicle: saline.
[8] abbreviates: dose: 50.0 mg/kg/injection, schedule: Q01DX009 (ip), vehicle: saline.
[9] abbreviates: dose: 100.0 mg/kg/injection, schedule: Q01DX001 (ip), vehicle: carboxymethylcellulose (CMC).
Setting [10] is: dose: 200.0 mg/kg/injection, schedule: Q01DX001 (ip), vehicle: carboxymethylcellulose (CMC).
The mark [11] stands for this setting: dose: 400.0 mg/kg/injection, schedule: Q01DX001 (ip), vehicle: carboxymethylcellulose (CMC).
Setting [12] is: dose: 75.0 mg/kg/injection, schedule: Q04DX003 (ip), vehicle: saline.
Where [13] appears, read: dose: 150.0 mg/kg/injection, schedule: Q04DX003 (ip), vehicle: saline.
Setting [14] is: dose: 100.0 mg/kg/injection, schedule: Q04DX003 (ip), vehicle: saline with Tween-80.
Where [15] appears, read: dose: 200.0 mg/kg/injection, schedule: Q04DX003 (ip), vehicle: saline with Tween-80.
The mark [16] stands for this setting: dose: 400.0 mg/kg/injection, schedule: Q04DX003 (ip), vehicle: saline with Tween-80.

As to `CN(CCC#N)c1ccc(-c2cc(C(=O)O)c3cc4ccccc4cc3n2)cc1`, the T/C by setting is: under setting [1], 110 % of control; under setting [2], 95 % of control.
Regarding `CC(=O)Oc1c2c(n3c1CCC3)CC(C)CC2=O` (stereo not given), the T/C is, setting by setting: (dose: 50.0 mg/kg/injection, schedule: Q04DX002 (ip), vehicle: Klucel (hydroxypropylcellulose) (HPC)) 97 % of control; under setting [3], 97 % of control; under setting [1], 102 % of control.
`O=C(c1ccc([N+](=O)[O-])cc1)c1ccc(O)cc1O`: the T/C by setting is: (dose: 100.0 mg/kg/injection, schedule: Q01DX001 (ip), vehicle: other) 101 % of control; (dose: 100.0 mg/kg/injection, schedule: Q04DX003 (ip), vehicle: other) 100 % of control; (dose: 200.0 mg/kg/injection, schedule: Q01DX001 (ip), vehicle: other) 101 % of control; (dose: 200.0 mg/kg/injection, schedule: Q04DX003 (ip), vehicle: other) 101 % of control; (dose: 400.0 mg/kg/injection, schedule: Q01DX001 (ip), vehicle: other) 103 % of control; (dose: 400.0 mg/kg/injection, schedule: Q04DX003 (ip), vehicle: other) 97 % of control.
In the case of `O=c1cc(I)[nH]c(=O)[nH]1`, the T/C reads like this: (dose: 73.0 mg/kg/injection, schedule: Q01DX Z (ip), vehicle: methylcellulose (MC)) 100 % of control; (dose: 111.0 mg/kg/injection, schedule: Q01DX Z (ip), vehicle: methylcellulose (MC)) 96 % of control; (dose: 165.0 mg/kg/injection, schedule: Q01DX Z (ip), vehicle: methylcellulose (MC)) 102 % of control; (dose: 248.0 mg/kg/injection, schedule: Q01DX Z (ip), vehicle: methylcellulose (MC)) 110 % of control.
With `CC1(c2cccc3ccccc23)OCC2(CCCCC2)CO1`, the T/C (dose: 81.3 mg/kg/injection, schedule: Q01DX009 (ip), vehicle: DMSO) is 109 % of control; the T/C (dose: 100.0 mg/kg/injection, schedule: Q04DX003 (ip), vehicle: DMSO) was 92 % of control; the T/C (dose: 200.0 mg/kg/injection, schedule: Q04DX003 (ip), vehicle: DMSO) is 90 % of control; the T/C (dose: 400.0 mg/kg/injection, schedule: Q04DX003 (ip), vehicle: DMSO) is 95 % of control.
In the case of `COc1ccccc1NC(=O)Nc1c(C)cccc1C`, the T/C reads like this: (dose: 100.0 mg/kg/injection, schedule: Q01DX009 (ip), vehicle: gum acacia) 97 % of control; (dose: 100.0 mg/kg/injection, schedule: Q04DX003 (ip), vehicle: gum acacia) 98 % of control; (dose: 200.0 mg/kg/injection, schedule: Q01DX009 (ip), vehicle: gum acacia) 88 % of control; (dose: 200.0 mg/kg/injection, schedule: Q04DX003 (ip), vehicle: gum acacia) 93 % of control; (dose: 400.0 mg/kg/injection, schedule: Q01DX009 (ip), vehicle: gum acacia) 90 % of control; (dose: 400.0 mg/kg/injection, schedule: Q04DX003 (ip), vehicle: gum acacia) 94 % of control.
With `CCOP(=S)(OCC)SCc1c(C)c(C)c(CSP(=S)(OCC)OCC)c(C)c1C`, the T/C runs as follows: under setting [4], 95 % of control; (dose: 100.0 mg/kg/injection, schedule: Q04DX003 (ip), vehicle: Klucel (hydroxypropylcellulose) (HPC)) 103 % of control; (dose: 200.0 mg/kg/injection, schedule: Q01DX009 (ip), vehicle: Klucel (hydroxypropylcellulose) (HPC)) 103 % of control; under setting [5], 101 % of control; (dose: 400.0 mg/kg/injection, schedule: Q01DX009 (ip), vehicle: Klucel (hydroxypropylcellulose) (HPC)) 93 % of control; under setting [6], 105 % of control.
Consider `CC1=NS(=O)(=O)NC(C)(C)C1`, for which the T/C is 93 % of control (dose: 12.5 mg/kg/injection, schedule: Q01DX009 (ip), vehicle: saline); 93 % of control under setting [7]; 123 % of control (dose: 50.0 mg/kg/injection, schedule: Q01DX001 (ip), vehicle: carboxymethylcellulose (CMC)); 98 % of control under setting [8]; 96 % of control under setting [9]; 87 % of control under setting [4].
For `CCCCC(=O)c1ccc(OC)c(C)c1`, the T/C reads like this: under setting [9], 101 % of control; under setting [10], 97 % of control; under setting [11], 103 % of control.
For `COc1ccc(CSC(=S)Nc2ccc(Cl)c(Cl)c2)cc1OC`, the T/C is 101 % of control (dose: 37.5 mg/kg/injection, schedule: Q04DX003 (ip), vehicle: saline); 93 % of control under setting [12]; 101 % of control under setting [13].
For the compound `O=C(O)c1ccccc1C(=O)Nc1ccccc1Cl`, the T/C runs as follows: under setting [14], 96 % of control; under setting [15], 102 % of control; under setting [16], 102 % of control.
For the compound `CC(C)CCCC(C)C1CCC2C3CC=C4CC([S+](C)C)CCC4(C)C3CCC12C` (stereo not given), the T/C is, setting by setting: under setting [7], 96 % of control; under setting [8], 96 % of control; (dose: 100.0 mg/kg/injection, schedule: Q04DX003 (ip), vehicle: alcohol) 98 % of control.
Consider `BrCC1=CC(c2ccccc2)(c2ccccc2)c2ccccc21`, for which the T/C is, setting by setting: under setting [14], 89 % of control; under setting [15], 89 % of control; under setting [16], 87 % of control.
For the compound `CCNC(=O)N1CCN(c2ccc(Cl)cc2)CC1`, the T/C (dose: 40.0 mg/kg/injection, schedule: Q04DX003 (ip), vehicle: saline) is 101 % of control; the T/C (dose: 75.0 mg/kg/injection, schedule: Q01DX001 (ip), vehicle: saline) is 97 % of control; the T/C under setting [12] is 98 % of control; the T/C (dose: 150.0 mg/kg/injection, schedule: Q01DX001 (ip), vehicle: saline) was 101 % of control; the T/C under setting [13] is 95 % of control.
As for `CCCN(C)/N=N/c1[nH]ncc1C(N)=O`, the T/C (dose: 66.0 mg/kg/injection, schedule: Q01DX009 (ip), vehicle: saline with Tween-80) was 178 % of control; the T/C (dose: 100.0 mg/kg/injection, schedule: Q01DX001 (ip), vehicle: saline with Tween-80) is 113 % of control; the T/C (dose: 100.0 mg/kg/injection, schedule: Q01DX009 (ip), vehicle: saline with Tween-80) is 188 % of control; the T/C (dose: 200.0 mg/kg/injection, schedule: Q01DX001 (ip), vehicle: saline with Tween-80) is 115 % of control; the T/C (dose: 200.0 mg/kg/injection, schedule: Q01DX009 (ip), vehicle: saline with Tween-80) was 120 % of control; the T/C under setting [15] was 116 % of control. Also, the T/C runs as follows: (dose: 400.0 mg/kg/injection, schedule: Q01DX001 (ip), vehicle: saline with Tween-80) 109 % of control; under setting [16], 94 % of control.
As for `C=COCCN1C(=O)c2ccccc2C1=O`, the T/C is, setting by setting: under setting [3], 102 % of control; under setting [1], 120 % of control; under setting [2], 106 % of control.
As for `CC(C)Nc1nc(Cl)nc(NC(C)C)n1`, the T/C was 101 % of control (dose: 150.0 mg/kg/injection, schedule: Q01DX009 (ip), vehicle: Klucel (hydroxypropylcellulose) (HPC)); 96 % of control under setting [5]; 94 % of control (dose: 225.0 mg/kg/injection, schedule: Q01DX009 (ip), vehicle: Klucel (hydroxypropylcellulose) (HPC)); 94 % of control (dose: 335.0 mg/kg/injection, schedule: Q01DX009 (ip), vehicle: Klucel (hydroxypropylcellulose) (HPC)); 94 % of control under setting [6].
Turning to `CCS(=O)(=O)c1ccc(NC(=O)OC(C)(C)C)cc1`, the T/C is, setting by setting: under setting [9], 94 % of control; under setting [10], 94 % of control; under setting [11], 100 % of control.
Regarding `CCC(C)C(CCN1CCCC1)(CNC(=O)CN(CC)CC)c1cccc2ccccc12` (stereo not given), the T/C (dose: 100.0 mg/kg/injection, schedule: Q01DX009 (ip), vehicle: saline) was 95 % of control.
Take `O=C(NNS(=O)(=O)c1ccc([N+](=O)[O-])cc1)c1ccccc1`: the T/C reads like this: under setting [9], 105 % of control; under setting [10], 102 % of control; under setting [11], 100 % of control.
